Data taken from the SangsterLogP compilation.

assay: method code SF-HPLC, from PMID: 2608704; details: pH 1.0

Row | SMILES | logD
1 | O=C(O)CCC1=NS(=O)(=O)c2cc(Cl)cc(Cl)c2N1 | 1.04
2 | O=C(O)CCSC1=NS(=O)(=O)c2ccc(Cl)cc2N1 | 1.6
3 | COc1ccc2c(c1)NC(SCCC(=O)O)=NS2(=O)=O | 0.96
4 | O=C(O)CCSC1=NS(=O)(=O)c2ccccc2N1 | 0.66
5 | Cc1ccc2c(c1)NC(SCCC(=O)O)=NS2(=O)=O | 1.16
6 | O=C(O)CCSC1=NS(=O)(=O)c2ccc(C(F)(F)F)cc2N1 | 1.96
7 | O=C(O)CCCC1=NS(=O)(=O)c2cc(Br)cc(Br)c2N1 | 1.51
8 | O=C(O)CCSC1=NS(=O)(=O)c2cc(Br)ccc2N1 | 1.77
9 | O=C(O)CCC1=NS(=O)(=O)c2cc(Br)cc(Br)c2N1 | 1.35
10 | O=C(O)CCSC1=NS(=O)(=O)c2cc(Br)cc(Br)c2N1 | 2.04
11 | O=C(O)CCCC1=NS(=O)(=O)c2cc(Cl)cc(Cl)c2N1 | 1.22

The next lines start with the values.

Row | logD | SMILES
12 | 0.18 | O=C(O)CSC1=NS(=O)(=O)c2ccccc2N1
13 | 1.81 | O=C(O)CCSC1=NS(=O)(=O)c2cc(Cl)c(Cl)cc2N1
14 | 0.7 | Cc1ccc2c(c1)NC(SCC(=O)O)=NS2(=O)=O
15 | 1.16 | O=C(O)CSC1=NS(=O)(=O)c2cc(Br)cc(Br)c2N1
16 | 1.09 | O=C(O)CSC1=NS(=O)(=O)c2cc(Cl)cc(Cl)c2N1
17 | 0.92 | O=C(O)CSC1=NS(=O)(=O)c2cc(Br)ccc2N1
18 | 1.5 | O=C(O)CCC1=NS(=O)(=O)c2cc(Cl)c(Cl)cc2N1
19 | 0.72 | O=C(O)CSC1=NS(=O)(=O)c2cc(Cl)ccc2N1
20 | 0.37 | COc1ccc2c(c1)NC(SCC(=O)O)=NS2(=O)=O
21 | 0.82 | O=C(O)CSC1=NS(=O)(=O)c2ccc(Cl)cc2N1
22 | 1.1 | O=C(O)CSC1=NS(=O)(=O)c2cc(Cl)c(Cl)cc2N1
23 | 1.62 | O=C(O)CSC1=NS(=O)(=O)c2ccc(C(F)(F)F)cc2N1
24 | 1.43 | O=C(O)CCSC1=NS(=O)(=O)c2cc(Cl)ccc2N1
